In patent publication US20250057793A1, “BENZOIC ACID SALTS FOR TREATMENT OF NERVOUS SYSTEM INJURIES AND DISORDERS” (The United States Government as represented by the …, priority 2021, published 2025):

Key:
[1] = test system: Huntington pathology in mice; settings: oral, 50 mg/kg body wt/d; cited from earlier work
[2] = mice treated with cinnamon orally; cited from earlier work
[3] = test system: cuprizone-intoxicated mice; assay: Remyelination of corpus callosum in cuprizone-intoxicated mouse model of demyelination; format: in vivo; settings: cuprizone diet 5 weeks, then NaB 50 mg/kg body wt/d oral gavage 3 weeks
Method: FIGS. 16A-16C: Oral NaB stimulates the maturation of OPCs in vivo in the corpus callosum of cuprizone-intoxicated mice. C57/BL6 mice (8-10 week old; male) were fed cuprizone-containing diet (Envigo) for 5 weeks followed by treatment with NaB (50 mg/kg body wt/d) orally via gavage. FIG. 16A) After 3 weeks of treatment with NaB, corpus callosum sections were double-labeled for PLP and A2B5. Mean fluorescence intensity (MFI) of A2B5 (FIG. 16B) and PLP (FIG. 16C) were quantified from one section (two images per section) of each of 5 mice group. Results are mean+SEM of 5 mice per group. ***p<0.001; **p<0.01.
FIGS. 17A-17H: Effect of NaB on myelination in vivo in the corpus callosum of cuprizone-intoxicated mice. C57/BL6 mice (8-10 week old; male; n=5) were fed cuprizone-containing diet (Envigo) for 5 weeks followed by treatment with NaB (50 mg/kg body wt/d) orally via gavage. After 3 weeks of treatment with NaB, corpus callosum sections were immunostained MBP (FIG. 17A) and PLP (FIG. 17B). Mean fluorescence intensity (MFI) of MBP (FIG. 17C) and PLP (FIG. 17D) were quantified from one section (two images per section) of each of 5 mice group. Results are mean+SEM of 5 mice per group. **p<0.01; *p<0.05. FIG. 17E) Corpus callosum sections were stained for luxol fast blue (LFB). FIG. 17F) For electron microscopic studies, 50 μm thick sagittal sections were prepared and stained followed by analysis of corpus callosum sections for different parameters to evaluate axonal ultrastructures. FIG. 17G) G score was calculated in 75 axons per group for all three groups. FIG. 17H) Percentage of myelinated axons was calculated in 7 randomly selected corpus callosum sections of 5 mice per group. ***p<0.001.

[4] = if consumed in excess; cited from earlier work
[5] = test system: OPCs cultured on polycaprolactone nanofibers; assay: Myelination of synthetic polycaprolactone nanofibers by OPCs; format: cell-based, mouse; settings: 100 μM, 2 days after 7 days culture on nanofibers
Method: FIG. 15A) After 18 h of 100 μM NaB treatment in serum-free condition, cells were fixed and then dual immuno-stained with MBP (red) and OPC marker NG2 (green). Nuclei were stained with DAPI (blue). FIG. 15B) Similarly, OPCs were stained with PLP (red) and A2B5 (green) under similar treatment condition. Quantification of MBP+(FIG. 15C), NG2+(FIG. 15D), PLP+(FIG. 15E), and A2B5+(FIG. 15F) cells as a percentage of total cells (DAPI+). Average 5 fields per slide, total 3 slides. Results are mean+SEM. ***p<0.001. FIG. 15G) For protein expression, cells were treated with different doses of NaB for 18 h under serum free condition and then immunoblotted with PLP and MOG. FIG. 15H) Densitometric analyses of the bands relative to beta actin were done for PLP and MOG. ^ap<0.001 vs. control PLP; ^bp<0.005 vs. control MOG. FIG. 151) Cells were treated with NaB (100 μM) and NaFO (100 μM) for 4 h under serum-free condition followed by monitoring the mRNA expression of myelin-specific genes by real-time PCR (ap<0.01 vs. control PLP; ^bp<0.01 vs. control MOG; cp<0.01 vs. control MBP; dp<0.01 vs. control CNPase). OPCs were cultured on the top of randomly-oriented polycaprolactone nanofibers (Nanofiber Solutions; Cat #Z694576) for 7 days. […]

mice with TBI = assay: Side effects of oral NaB in TBI mice; format: in vivo, mouse
LPS-stimulated microglia = settings: cited from earlier work

SMILES | Huntington pathology [1] | presence of NaB in the brain [2] | MBP in corpus callosum [3] | level of A2B5 in corpus callosum [3] | level of PLP in corpus callosum [3] | maturation of OPCs in vivo in the corpus callosum [3] | remyelination in the corpus callosum [3] | excretion [4] | myelination of synthetic fibers (MBP immunofluorescence) [5] | side effects (decrease in body weight, loss of hair, fecal boli, infection, untoward behavior) (mice with TBI) | level of TLR4 (LPS-stimulated microglia; LPS-stimulated microglia) | LPS-induced expression of iNOS and proinflammatory cytokines (LPS-stimulated microglia; microglia) | p21ras activation (LPS-stimulated microglia; microglial cells)
O=C(OCC(COC(=O)c1ccccc1)OC(=O)c1ccccc1)c1ccccc1 [GTB, Glyceryl Tribenzoate] | alleviates |  |  |  |  |  |  |  |  |  |  |  | 
O=C([O-])c1ccccc1.[Na+] [NaB, Sodium benzoate] |  | detected in the brain | increased | decreased | increased | stimulates | can promote remyelination | secreted through the urine | stimulation of myelination | did not cause any side effects | has no effect | inhibits | suppression
